Results on eleven compounds are retold here after ChEMBL document CHEMBL4002541 (Medchemcomm, 2014).

Active and inactive are the calls of the source. The calls are words filed in the database; no cut-off is given here. Where only a bound is given, the exact number is not on record here.

The target of assay [1] is T1, Melatonin receptor type 1A (Homo sapiens, UniProt P48039). In words: Displacement of 2-[125I]Iodomelatonin from human MT1 receptor expressed in CHO cell membranes after 120 mins.
The target in assay [2] is T2, Melatonin receptor type 1B (Homo sapiens, UniProt P49286).
T2 sequence (P49286 whole entry): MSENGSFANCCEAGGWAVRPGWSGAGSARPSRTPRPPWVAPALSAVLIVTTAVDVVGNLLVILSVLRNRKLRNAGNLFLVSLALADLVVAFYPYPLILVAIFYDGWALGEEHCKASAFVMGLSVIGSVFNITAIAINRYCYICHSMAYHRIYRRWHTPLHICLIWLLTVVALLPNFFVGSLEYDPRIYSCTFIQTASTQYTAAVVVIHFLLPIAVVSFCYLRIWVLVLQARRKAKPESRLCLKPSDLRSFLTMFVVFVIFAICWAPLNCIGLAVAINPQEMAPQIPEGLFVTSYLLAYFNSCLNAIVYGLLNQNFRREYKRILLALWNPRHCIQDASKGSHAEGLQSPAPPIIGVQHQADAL
In words: Displacement of 2-[125I]Iodomelatonin from human MT2 receptor expressed in CHO cell membranes after 120 mins.

Assay [3] concerns the target T3, 5-hydroxytryptamine receptor 2C (Homo sapiens, UniProt P28335).
T3 sequence (P28335 whole entry): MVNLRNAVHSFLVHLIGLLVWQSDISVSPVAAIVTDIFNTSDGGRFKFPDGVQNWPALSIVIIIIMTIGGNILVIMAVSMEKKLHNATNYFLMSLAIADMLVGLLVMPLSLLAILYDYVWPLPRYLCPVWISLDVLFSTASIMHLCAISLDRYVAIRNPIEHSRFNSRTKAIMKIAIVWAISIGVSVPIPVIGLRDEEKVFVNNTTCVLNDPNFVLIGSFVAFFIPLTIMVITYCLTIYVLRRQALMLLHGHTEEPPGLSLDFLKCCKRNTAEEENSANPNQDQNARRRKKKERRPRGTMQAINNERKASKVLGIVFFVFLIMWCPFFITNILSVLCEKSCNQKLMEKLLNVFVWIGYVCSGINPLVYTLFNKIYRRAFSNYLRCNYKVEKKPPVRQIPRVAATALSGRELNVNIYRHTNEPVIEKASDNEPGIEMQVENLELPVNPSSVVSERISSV
The assay is described as follows: Displacement of [3H]mesulergine from human 5HT2C (VSV) receptor expressed in CHO cell membranes after 60 mins by scintillation counting method. (In general: In a radioligand displacement assay an active substance lowers the binding of a labelled ligand.)

For assay [4], the target named is T1, Melatonin receptor type 1A. The assay is described as follows: Agonist activity at human MT1 receptor expressed in CHO cells after 1 hr by [35S]GTPgammaS binding assay. In kind it is functional, cell-based.
Assay [5] concerns the target T2, Melatonin receptor type 1B. The assay is described as follows: Agonist activity at human MT2 receptor expressed in CHO cells after 1 hr by [35S]GTPgammaS binding assay. In kind it is functional, cell-based. (In general: GTPγS resists hydrolysis and so accumulates on activated G proteins.)
The species named for assay [6] is Homo sapiens. The assay is described as follows: Selectivity ratio of Ki for human MT1 receptor to Ki for human MT2 receptor.
In assay [7] the test system is Mus musculus. The assay is described as follows: Antidepressant activity in OF1 mouse assessed as reduction in immobility time at 0.1 to 10 mg/kg administered 40 mins prior to testing measured for 6 mins by tail suspension test. In kind it is functional, organism-based.
Assay [8] concerns the target T1, Melatonin receptor type 1A. In words: Binding affinity to MT1 receptor (unknown origin).
Assay [9] addresses T2, Melatonin receptor type 1B. In words: Binding affinity to MT2 receptor (unknown origin).
Assay [10] deals with Mus musculus. The assay is described as follows: Antidepressant activity in OF1 mouse assessed as reduction in immobility time at 64 mg/kg administered 40 mins prior to testing measured for 6 mins by tail suspension test. In kind it is functional, organism-based.
The target of assay [11] is T1, Melatonin receptor type 1A. The assay is described as follows: Partial agonist activity at human MT1 receptor expressed in CHO cells after 1 hr by [35S]GTPgammaS binding assay. In kind it is functional, cell-based.
Assay [12] concerns the target T4, Melatonin receptor type 1B (Homo sapiens) (UniProt P49286).
T4 sequence (whole entry): T2 sequence (P49286 whole entry)
In words: (§1) Partial agonist activity at human MT2 receptor expressed in CHO cells after 1 hr by [35S]GTPgammaS binding assay. In kind it is functional, cell-based.

In assay [13] the target is T2, Melatonin receptor type 1B. The assay is described as §1. In kind it is functional, cell-based.
The target in assay [14] is T5, 5-hydroxytryptamine receptor 2C (Homo sapiens) (UniProt P28335).
T5 sequence (whole entry): T3 sequence (P28335 whole entry)
In words: Antagonist activity at human 5HT2C (VSV) receptor expressed in CHO cells assessed as inhibition of 5-HT-induced [3H]inositol phosphate production preincubated for 20 mins followed by 5-HT addition. Format: functional, cell-based.

The test system of assay [15] is Mus musculus. The assay is described as follows: Antidepressant activity in OF1 mouse assessed as reduction in immobility time at 0.1 mg/kg administered 40 mins prior to testing measured for 6 mins by tail suspension test. In kind it is functional, organism-based.
Assay [16] addresses T5, 5-hydroxytryptamine receptor 2C (Homo sapiens). The assay is described as follows: Antagonist activity at human 5HT2C (VSV) receptor expressed in CHO cells assessed as inhibition of 5-HT-induced [3H]inositol phosphate production preincubated for 20 mins followed by 5-HT addition relative to 5-HT. Format: functional, cell-based.
In assay [17] the test system is Mus musculus. In words: Antidepressant activity in OF1 mouse assessed as reduction in immobility time at 1 to 10 mg/kg administered 40 mins prior to testing measured for 6 mins by tail suspension test. In kind it is functional, organism-based.

T1 sequence (P48039 whole entry): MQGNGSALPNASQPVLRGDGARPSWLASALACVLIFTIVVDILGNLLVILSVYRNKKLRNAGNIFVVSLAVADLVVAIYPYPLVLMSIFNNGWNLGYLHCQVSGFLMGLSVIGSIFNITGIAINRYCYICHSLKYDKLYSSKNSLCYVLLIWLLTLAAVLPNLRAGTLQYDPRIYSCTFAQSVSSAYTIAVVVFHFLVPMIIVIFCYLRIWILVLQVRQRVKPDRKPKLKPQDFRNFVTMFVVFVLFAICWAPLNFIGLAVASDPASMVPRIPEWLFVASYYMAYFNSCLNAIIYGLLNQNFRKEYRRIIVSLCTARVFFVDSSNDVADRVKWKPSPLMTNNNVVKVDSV

Consider `COc1ccc2cccc(C(CO)CNC(C)=O)c2c1` (stereo not drawn), for which the Ki (as a rule, the equilibrium dissociation constant of an inhibitor or competing ligand from its target) in assay [1] is 11 nM; in assay [2], 13.8 nM; in assay [3] it was 229 nM. For the same compound, the values for the EC50 in assay [4] and in assay [5] were 72.4 nM and 145 nM, respectively.
Consider `COc1ccc2cccc([C@H](CO)CNC(=O)CF)c2c1`, for which the figures for the Ki in assay [1], in [2] and in assay [3] were 347 nM, 52.5 nM and over 10000 nM, respectively. Moreover, in assay [6], the Ratio Ki was 7. Besides, the EC50 (as a rule, the midpoint of the concentration-response curve) was 1050 nM in assay [4] and 25.1 nM in assay [5]. In addition, the result in assay [7] was inactive.
On to `COc1ccc2cccc(C(CO)CNC(=O)CF)c2c1` (racemic), for which the results for the Ki in assay [2] and in assay [3] were 0.537 nM and 166 nM, respectively. Moreover, the EC50 in assay [4] is 25.1 nM; in assay [5], 0.631 nM.
`COc1cc2c([C@@H](C)CNC(C)=O)c[nH]c2cc1Cl`: the Ki is 0.0794 nM in assay [8] and 0.0398 nM in [9].
With `CCC(=O)NCC(CO)c1cccc2ccc(OC)cc12` (racemic), the results for the Ki in assay [1], in [2] and in assay [3] were 1.35 nM, 2.95 nM and 708 nM, respectively. Moreover, the figures for the EC50 in assay [4] and in [5] were 49 nM and 2.75 nM, respectively.
Take `CN(C)CCCN1c2ccccc2CCc2ccccc21`: the outcome in [10] was Active.
Turning to `CCC(=O)NC[C@H](CO)c1cccc2ccc(OC)cc12`, the Ki in [1] is 3.39 nM; in [2], 0.316 nM; in assay [3] it was 417 nM. Besides, the figures for the EC50 in assay [11] and in assay [13] were 19.5 nM and 1.26 nM, respectively. Besides, the results for the Emax in assay [11] and in assay [12] were 59% and 107%, respectively. Further, the pKb (in general, the Kb on a negative log10 scale, so that one unit is a factor of ten) in [14] was 6. Moreover, the outcome in [15] was inactive. For the same compound, in assay [16], the Imax was determined as 79%. In addition, the Activity result in [17] was “Dose-dependent effect”.
Take `COc1ccc2cccc(C(CO)CNC(=O)C(F)F)c2c1` (stereo not drawn): the Ki in assay [1] was 1.91 nM; in assay [2], 0.347 nM; in assay [3] it was 692 nM. Moreover, the EC50 in assay [4] is 10.2 nM; in assay [5], 0.372 nM.
On to `COc1ccc2cccc([C@@H](CO)CNC(=O)CF)c2c1`, for which the Ki in assay [1] was 5.89 nM; in [2], 0.977 nM; in assay [3], 186 nM. For the same compound, the values for the EC50 in [11] and in assay [13] were 79.4 nM and 0.794 nM, respectively. Also, the values for the Emax in assay [11] and in [12] were 62% and 99%, respectively. The negative-log Kb (pKb) in assay [14] was found to be 6.3. In [7], the outcome was Active. In addition, the Imax in assay [16] stood at 97%.
Take `COc1ccc2cccc(CCNC(C)=O)c2c1`: the Imax in [16] was 98%.
For the compound `CCC(=O)NC[C@@H](CO)c1cccc2ccc(OC)cc12`, the Ki in [1] was 182 nM; in [2], 5.5 nM; in assay [3] it was over 10000 nM. In assay [6], the Ratio Ki turned out to be 53. For the same compound, the EC50 was 389 nM in assay [4] and 7.41 nM in assay [5]. The outcome in [7] was inactive.
